Data from PubChem BioAssay (NCI).
“And” between values parts separate entries of the source, which are not always exact repeats. Identical values can stand only once.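 Where inhibition never reached the appropriate level, the endpoint shown equals the highest concentration tested. Otherwise, values were interpolated linearly from a five-concentration, 48-hour dose response in 96-well plates. Abbreviation: GI50, concentration required for 50% inhibition of growth. TGI denotes the concentration required for complete inhibition of growth.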

How the values were obtained:
Assay in all cases: DTP human tumour cell line panel, 48 h
A498 renal = system: A498 renal
CAKI-1 renal = system: CAKI-1 renal
MOLT-4 leukemia = system: MOLT-4 leukemia
NCI-H522 lung = system: NCI-H522 lung
OVCAR-8 ovarian = system: OVCAR-8 ovarian
RPMI-8226 leukemia = system: RPMI-8226 leukemia
SK-MEL-2 melanoma = system: SK-MEL-2 melanoma
SN12C renal = system: SN12C renal
U251 CNS = system: U251 CNS
SF-268 CNS = system: SF-268 CNS

Row | Compound | TGI (A498 renal) | TGI (CAKI-1 renal) | TGI (MOLT-4 leukemia) | TGI (NCI-H522 lung) | TGI (OVCAR-8 ovarian) | TGI (RPMI-8226 leukemia) | TGI (SK-MEL-2 melanoma) | TGI (SN12C renal) | TGI (U251 CNS) | TGI (SF-268 CNS) | GI50 (A498 renal) | GI50 (CAKI-1 renal) | GI50 (MOLT-4 leukemia) | GI50 (NCI-H522 lung) | GI50 (OVCAR-8 ovarian) | GI50 (RPMI-8226 leukemia) | GI50 (SF-268 CNS) | GI50 (SK-MEL-2 melanoma) | GI50 (SN12C renal) | GI50 (U251 CNS)
1 | c1csc(C(NC2=NCCO2)C2CC2)c1 (configuration not stated) | > 100 µM | > 100 µM | > 100 µM | > 100 µM | > 100 µM | > 100 µM | > 100 µM | > 100 µM | > 100 µM | – | – | – | – | – | – | – | – | – | – | –
2 | O=C([O-])C1([n+]2c(-c3ccccc3)cc(-c3ccccc3)cc2-c2ccccc2)CC1 | > 100 µM | – | > 100 µM | > 100 µM | > 100 µM | > 100 µM | – | > 100 µM | > 100 µM | > 100 µM | – | – | – | – | – | – | – | – | – | –
3 | CC(N)=O.[Cl][Pt][Cl].[NH-]c1ccn(C2OC(CO)C(O)C2O)c(=O)n1 (configuration not stated) | > 100 µM | > 100 µM | > 100 µM | > 100 µM | > 100 µM | > 100 µM | > 100 µM | > 100 µM | > 100 µM | > 100 µM | – | – | – | – | – | – | – | – | – | –
4 | O=S(=O)(c1ccc2ccccc2c1)N1CCN(S(=O)(=O)c2ccc3ccccc3c2)CC1 | > 100 µM | > 100 µM | – | > 100 µM | > 100 µM | > 100 µM | > 100 µM | > 100 µM | > 100 µM | > 100 µM | – | – | – | – | – | – | – | – | – | –
5 | Clc1cccc(C2SCc3nc4ccccc4n32)c1 (configuration not stated) | – | > 100 µM | > 100 µM | 29.5 µM | 65.1 µM | > 100 µM | – | 28.6 µM | 33 µM | > 100 µM | – | – | – | – | – | – | – | – | – | –
6 | CO/C(=N\N=C(/c1ccccc1)C(F)(F)F)c1ccncc1 | > 100 µM | > 100 µM | > 100 µM | > 100 µM | > 100 µM | > 100 µM | > 100 µM | > 100 µM | > 100 µM | – | – | – | – | – | – | – | – | – | – | –
7 | Clc1ccc(-c2nnc(-c3nsc4ccccc34)o2)cc1 | – | – | – | – | > 100 µM | > 100 µM | > 100 µM | > 100 µM | 33.5 µM | 66.6 µM | – | – | – | – | – | – | – | – | – | –
8 | N/C(=N\N=C/c1cc([N+](=O)[O-])cc([N+](=O)[O-])c1O)NO | > 100 µM | > 100 µM | > 100 µM | > 100 µM | > 100 µM | > 100 µM | > 100 µM | > 100 µM | > 100 µM | > 100 µM | – | – | – | – | – | – | – | – | – | –
9 | CC(=O)Nc1cc(/C=C\C(=O)N2CC(CCl)c3c2cc(N)c2ccccc32)n(C)n1 (configuration not stated) | 0.0211 µM | 0.0223 µM | 0.0357 µM | – | – | 0.0577 µM and 0.0242 µM | 0.0416 µM and 0.0479 µM | – | 1.23 µM and 3.23 µM | 0.211 µM | – | – | – | – | – | – | – | – | – | –
10 | Cc1cc(C)c(S(=O)(=O)N(CCCN)OCCCN)c(C)c1 | – | > 100 µM | > 100 µM | – | > 100 µM | > 100 µM | > 100 µM | > 100 µM | > 100 µM | > 100 µM | – | – | – | – | – | – | – | – | – | –
11 | Fc1ccc(C(OCCN2CC3CC2CN3)c2ccc(F)cc2)cc1 (configuration not stated) | > 100 µM | > 100 µM | > 100 µM | > 100 µM | > 100 µM | 71.1 µM | 38.1 µM | – | > 100 µM | > 100 µM | – | – | – | – | – | – | – | – | – | –
12 | CCN1C(=O)N2C(OC)c3ccccc3C(Br)C2(OC)C1=O (configuration not stated) | > 100 µM | > 100 µM | > 100 µM | > 100 µM | > 100 µM | > 100 µM | > 100 µM | > 100 µM | > 100 µM | – | – | – | – | – | – | – | – | – | – | –
13 | N=C(N)c1ccc(N=Nc2c(O)ccc3cc(O)ccc23)cc1 | – | > 100 µM | > 100 µM | > 100 µM | > 100 µM | > 100 µM | > 100 µM | – | > 100 µM | > 100 µM | – | – | – | – | – | – | – | – | – | –
14 | O=C(/C=C\c1ccc(/C=C/C(=O)Nc2cccc(C3=NCCCN3)c2)cc1)Nc1cccc(C2=NCCCN2)c1 | > 100 µM | – | > 100 µM | > 100 µM | > 100 µM | 76.3 µM | > 100 µM | > 100 µM | > 100 µM | – | – | – | – | – | – | – | – | – | – | –
15 | CC1=NN(C(=O)c2ccc(C)cc2)C(=O)C1N=Nc1ccccc1C(=O)O (configuration not stated) | > 100 µM | > 100 µM | > 100 µM | > 100 µM | > 100 µM | > 100 µM | > 100 µM | > 100 µM | > 100 µM | > 100 µM | – | – | – | – | – | – | – | – | – | –
16 | CC1CCN(c2cc(-c3cc4ccccc4o3)oc(=O)c2C#N)CC1 | > 100 µM | > 100 µM | > 100 µM | – | > 100 µM | > 100 µM | > 100 µM | > 100 µM | > 100 µM | > 100 µM | – | – | – | – | – | – | – | – | – | –
17 | CCOC(=O)[C@H]1Nc2c(cccc2[N+](=O)[O-])C2c3ccccc3CC21 (some centres not stated) | – | > 100 µM | > 100 µM | > 100 µM | > 100 µM | > 100 µM | > 100 µM | > 100 µM | > 100 µM | > 100 µM | – | – | – | – | – | – | – | – | – | –
18 | Cc1ccc2oc3c(ccc(=O)n3C)c(=O)c2c1 | > 100 µM | > 100 µM | – | > 100 µM | > 100 µM | – | > 100 µM | > 100 µM | > 100 µM | > 100 µM | – | – | – | – | – | – | – | – | – | –
19 | O=c1[nH]c(=S)[nH]c2c(C3OC(CO)C(O)C3O)nsc12 (configuration not stated) | > 100 µM | > 100 µM | > 100 µM | – | > 100 µM | – | > 100 µM | > 100 µM | > 100 µM | > 100 µM | – | – | – | – | – | – | – | – | – | –
20 | CCOc1cc(/C=C/C(=O)CC(=O)/C=C/c2ccc(OC(=O)CNCCN(CC)CC)c(OCC)c2)ccc1OC(=O)CNCCN(CC)CC | 3.85 µM | 6.74 µM | 2.72 µM | 5.13 µM | 12.2 µM | 2.1 µM | 3.26 µM | 6.25 µM | 2.82 µM | 9.64 µM | 2.02 µM | 2.12 µM | 0.531 µM | 1.8 µM | 1.03 µM | 0.45 µM | 1.98 µM | 1.68 µM | 2 µM | 1.27 µM
